Experimental data reported in US4336375A, “Cephalosporanic acid derivatives” (American Cyanamid Company, priority 1980, dated 1982).
≈ marks a conversion by molar mass, not a printed value.

Legend:
Format in all cases: cell-based
[1] = tested on: Klebsiella pneumoniae UR76-1; experiment: In vitro MIC, agar dilution, Klebsiella pneumoniae UR76-1; settings: UR761; Klebsiella pneumoniae UR76-1; agar dilution, 35° C., 18 hours, nutrient agar; read-out: Minimal Inhibitory Concentration
Method: (§1) The in vitro activity of representative compounds of the present invention are given in the following Table I in terms of minimal inhibitory concentration. The test used was the standard agar dilution test using a Steers multiple inocula replicator and incubating at 35° C. for 18 hours in conventional nutrient agar.

[2] = tested on: Klebsiella pneumoniae W75-2; experiment: In vitro MIC, agar dilution, Klebsiella pneumoniae W75-2; settings: W752; Klebsiella pneumoniae W75-2; agar dilution, 35° C., 18 hours, nutrient agar; read-out: Minimal Inhibitory Concentration
Method: as §1

Serratia marcens QHC77-2 = experiment: In vitro MIC, agar dilution, Serratia marcens QHC77-2; settings: QHC772; Serratia marcens QHC77-2; agar dilution, 35° C., 18 hours, nutrient agar; read-out: Minimal Inhibitory Concentration
Method: as §1

[3] = tested on: Klebsiella pneumoniae W75-4; experiment: In vitro MIC, agar dilution, Klebsiella pneumoniae W75-4; settings: W754; Klebsiella pneumoniae W75-4; agar dilution, 35° C., 18 hours, nutrient agar; read-out: Minimal Inhibitory Concentration
Method: as §1

Enterococcus SM77-15 = experiment: In vitro MIC, agar dilution, Enterococcus SM77-15; settings: SM7715; Enterococcus SM77-15; agar dilution, 35° C., 18 hours, nutrient agar; read-out: Minimal Inhibitory Concentration
Method: as §1

[4] = tested on: Pseudomonas aeruginosa PD05141; experiment: In vitro MIC, agar dilution, Pseudomonas aeruginosa PD05141; settings: Pseudomonas aeruginosa PD05141; agar dilution, 35° C., 18 hours, nutrient agar; read-out: Minimal Inhibitory Concentration
Method: as §1

Serratia K101 = experiment: In vitro MIC, agar dilution, Serratia K101; settings: Serratia K101; agar dilution, 35° C., 18 hours, nutrient agar; read-out: Minimal Inhibitory Concentration
Method: as §1

[5] = tested on: Staphylococcus aureus Q74-6; experiment: In vitro MIC, agar dilution, Staphylococcus aureus Q74-6; settings: Q746; Staphylococcus aureus Q74-6; agar dilution, 35° C., 18 hours, nutrient agar; read-out: Minimal Inhibitory Concentration
Method: as §1

[6] = tested on: Pseudomonas aeruginosa 12-4-4; experiment: In vitro MIC, agar dilution, Pseudomonas aeruginosa 12-4-4; settings: 1244; Pseudomonas aeruginosa 12-4-4; agar dilution, 35° C., 18 hours, nutrient agar; read-out: Minimal Inhibitory Concentration
Method: as §1

[7] = tested on: Pseudomonas aeruginosa G236; experiment: In vitro MIC, agar dilution, Pseudomonas aeruginosa G236; settings: Pseudomonas aeruginosa G236; agar dilution, 35° C., 18 hours, nutrient agar; read-out: Minimal Inhibitory Concentration
Method: as §1

Proteus rettgeri N76-1 = experiment: In vitro MIC, agar dilution, Proteus rettgeri N76-1; settings: Providencia rettgeri, N761; Proteus rettgeri N76-1; agar dilution, 35° C., 18 hours, nutrient agar; read-out: Minimal Inhibitory Concentration
Method: as §1

Proteus morganii K72 = experiment: In vitro MIC, agar dilution, Proteus morganii K72; settings: Morganella morganii; Proteus morganii K72; agar dilution, 35° C., 18 hours, nutrient agar; read-out: Minimal Inhibitory Concentration
Method: as §1

Escherichia coli 311 = experiment: In vitro MIC, agar dilution, Escherichia coli 311; settings: 35° C., 18 hours, nutrient agar, read-out: Minimal Inhibitory Concentration
Method: as §1

[8] = tested on: Enterobacter cloacae OSU75-2; experiment: In vitro MIC, agar dilution, Enterobacter cloacae OSU75-2; settings: OSU752; Enterobacter cloacae OSU75-2; agar dilution, 35° C., 18 hours, nutrient agar; read-out: Minimal Inhibitory Concentration
Method: as §1

[9] = tested on: Escherichia coli ESS22-31; experiment: In vitro MIC, agar dilution, Escherichia coli ESS22-31; settings: ESS2231; Escherichia coli ESS22-31; agar dilution, 35° C., 18 hours, nutrient agar; read-out: Minimal Inhibitory Concentration
Method: as §1

Escherichia coli OSU75-1 = experiment: In vitro MIC, agar dilution, Escherichia coli OSU75-1; settings: OSU751, 35° C., 18 hours, nutrient agar, read-out: Minimal Inhibitory Concentration
Method: as §1

Klebsiella pneumoniae AD = experiment: In vitro MIC, agar dilution, Klebsiella pneumoniae AD; settings: Klebsiella pneumoniae AD; agar dilution, 35° C., 18 hours, nutrient agar; read-out: Minimal Inhibitory Concentration
Method: as §1

[10] = tested on: Staphylococcus aureus Q74-1; experiment: In vitro MIC, agar dilution, Staphylococcus aureus Q74-1; settings: Q741; Staphylococcus aureus Q74-1; agar dilution, 35° C., 18 hours, nutrient agar; read-out: Minimal Inhibitory Concentration
Method: as §1

Serratia marcens K77-1 = experiment: In vitro MIC, agar dilution, Serratia marcens K77-1; settings: K771; Serratia marcens K77-1; agar dilution, 35° C., 18 hours, nutrient agar; read-out: Minimal Inhibitory Concentration
Method: as §1

[11] = tested on: Enterobacter cloacae MA75-1; experiment: In vitro MIC, agar dilution, Enterobacter cloacae MA75-1; settings: Enterobacter cloacae, MA751, 18 h, read-out: Minimal Inhibitory Concentration
Method: as §1

Proteus vulgaris N74-1 = experiment: In vitro MIC, agar dilution, Proteus vulgaris N74-1; settings: N741, 35° C., 18 hours, nutrient agar, read-out: Minimal Inhibitory Concentration
Method: as §1

[12] = tested on: Enterobacter aerogenes UR76-3; experiment: In vitro MIC, agar dilution, Enterobacter aerogenes UR76-3; settings: Klebsiella aerogenes, UR763; Enterobacter aerogenes UR76-3; agar dilution, 35° C., 18 hours, nutrient agar; read-out: Minimal Inhibitory Concentration
Method: as §1

[13] = tested on: Pseudomonas aeruginosa UCS 76-13; experiment: In vitro MIC, agar dilution, Pseudomonas aeruginosa UCS 76-13; settings: UCS7613; Pseudomonas aeruginosa UCS 76-13; agar dilution, 35° C., 18 hours, nutrient agar; read-out: Minimal Inhibitory Concentration
Method: as §1

[14] = tested on: Klebsiella pneumoniae MA75-1; experiment: In vitro MIC, agar dilution, Klebsiella pneumoniae MA75-1; settings: MA751; Klebsiella pneumoniae MA75-1; agar dilution, 35° C., 18 hours, nutrient agar; read-out: Minimal Inhibitory Concentration
Method: as §1

Escherichia coli W75-1 = experiment: In vitro MIC, agar dilution, Escherichia coli W75-1; settings: W751, 35° C., 18 hours, nutrient agar, read-out: Minimal Inhibitory Concentration
Method: as §1

CCN1CCN(C(=O)NC(C(=O)NC2C(=O)N3C(C(=O)O)=C(CSc4n[nH]c(-n5cccn5)n4)CS[C@H]23)c2ccc(O)cc2)C(=O)C1=O (stereo partly shown) [Compound VI, 7-[2-(4-Ethyl-2,3-dioxo-1-piperazinecarboxamido)-2-(p-hydroxyphenyl)acetamido]-3-[5-(1-pyrazolyl)-1,2,4-triazol-3-ylthiomethyl]-3-cephem-4-carboxylic acid]
MIC [1]: 16 µg/mL (≈ 23 µM)
MIC [2]: 4 µg/mL (≈ 5.74 µM)
MIC (Serratia marcens QHC77-2): > 128 µg/mL
MIC [3]: 32 µg/mL (≈ 45.9 µM)
MIC (Enterococcus SM77-15): > 128 µg/mL
MIC [4]: 64 µg/mL (≈ 91.9 µM)
MIC (Serratia K101): 128 µg/mL (≈ 184 µM)
MIC [5]: 8 µg/mL (≈ 11.5 µM)
MIC [6]: 16 µg/mL (≈ 23 µM)
MIC [7]: 32 µg/mL (≈ 45.9 µM)
MIC (Proteus rettgeri N76-1): 16 µg/mL (≈ 23 µM)
MIC (Proteus morganii K72): 32 µg/mL (≈ 45.9 µM)
MIC (Escherichia coli 311): 1 µg/mL (≈ 1.44 µM)
MIC [8]: 64 µg/mL (≈ 91.9 µM)
MIC [9]: ≤ 0.12 µg/mL
MIC (Escherichia coli OSU75-1): 2 µg/mL (≈ 2.87 µM)
MIC (Klebsiella pneumoniae AD): 0.5 µg/mL (≈ 0.718 µM)
MIC [10]: 4 µg/mL (≈ 5.74 µM)
MIC (Serratia marcens K77-1): > 128 µg/mL
MIC [11]: > 128 µg/mL
MIC (Proteus vulgaris N74-1): 16 µg/mL (≈ 23 µM)
MIC [12]: 0.5 µg/mL (≈ 0.718 µM)
MIC [13]: 64 µg/mL (≈ 91.9 µM)
MIC [14]: 2 µg/mL (≈ 2.87 µM)
MIC (Escherichia coli W75-1): 2 µg/mL (≈ 2.87 µM)
